Results taken from patent publication US7141680B2, “Aromatic compounds possessing antifungal or antibacterial activity” (Genelabs Technologies, Inc., priority 2002, dated 2006).
Structures can show the parent of a compound that is named as a salt.

Tests used:
[1] = system: bacteria; assay: Minimum inhibitory concentration (MIC) assay, bacteria; format: cell-based
Description: (§1) The assays described below were used to measure the minimum inhibitory concentration (MIC) of a compound necessary to inhibit visible growth of the organism tested. These assays are adapted from NCCLS protocols M7-A4 and M27-A (NCCLS vol 17:9 and vol 17:2) as modified by Sandven, S., Clin. Micro. (1999) 37:12, p. 3856–3859. MIC values for Aspergillus species were determined using NCCLS protocol M38-P.
(§2) All compounds were dissolved in 100% DMSO to a stock concentration of 10 mM and used fresh stock compounds in powder form were kept frozen until needed and used freshly. When used for test purposes, compounds were diluted in the appropriate media depending on the organism being tested.
(§3) For yeast and aspergillus species, seven 1:2 serial dilutions of compound in appropriate media buffered with MOPS at pH 7.0 were prepared such that the final starting test compound concentrations were 44.4 μM for yeast and 50 μM aspergillus species. For bacteria, dilutions were made in growth media used for the particular bacteria being tested.
Five well-separated colonies from a 24 h Sabouraud Dextrose plate incubated at 35° C. were picked and resuspended into 2 mL of normal saline. The O.D.530 was read and the culture was adjusted to 0.5 McFarland units with normal saline. A 1:2000 dilution was made with RPMI 1640 media buffered with MOPS at pH 7.0 and 100 μL of this inoculum preparation was added to an equal volume of test compound-containing media. 25 μL of the redox indicator Alamar Blue (Biosource International) was added to each well and the plates were incubated for 48 h at 35° C. Wells having yeast growth changed color from blue to pink.
Inoculums are made in the same manner as yeast except all dilutions are made in normal saline, with a final dilution of 1:200 and an inoculum of 10 μL.

[2] = system: Aspergillus species; assay: Minimum inhibitory concentration (MIC) assay, filamentous fungi; format: cell-based; conditions: antifungal activity, lowest concentration at which 75% inhibition of growth is observed after 48 h
Description: as §1, §2, §3
Inoculums are made by incubating Aspergillus species for 7 days at 35° C. on potato dextrose agar slants. Slants are then covered with 1.0 mL of 0.85% saline, one drop of Tween 20 is added and colonies are teased with a sterile transfer loop to create a suspension which is allowed to sit for 5 min so heavier particles can drop out. The upper suspension is separated and adjusted to an optical density of 0.09 to 0.11. The resulting suspension is diluted 1:50, which yields 2× the final inoculum needed. Micro dilution trays are prepared as with yeast and incubated for 48 h at 35° C. For our purposes the MIC is defined as the lowest compound concentration at which 75% inhibition of growth is observed after 48 h.

Row | Structure (SMILES) | MIC [1] | MIC [2]
1 | N=C(N)NCCNC(=O)c1ccc2[nH]c(C(=O)Nc3ccc4cc(C(=O)NCCNC(=N)c5ccccn5)[nH]c4c3)cc2c1 [Compound 180, 1H-Indole-2,5-dicarboxylic acid 5-[(2-guanidinoethyl)amide] 2-[(2-{2-[(pyridine-2-carboximidoyl)amino]ethylcarbamoyl}-1H-indol-6-yl)amide]] | ≤ 45.5 µM | ≤ 50 µM
2 | CNC(=N)NCCNC(=O)c1cc2cc(NC(=O)c3cc4cc(NC(=O)CNC(=N)NC)ccc4[nH]3)ccc2[nH]1 [Compound 110] | ≤ 45.5 µM | ≤ 50 µM
3 | N=C(N)NCCNC(=O)c1ccc2[nH]c(C(=O)Nc3ccc4cc(C(=O)NCNC(=N)N)[nH]c4c3)cc2c1 [Compound 171, 1H-Indole-2,5-dicarboxylic acid 5-[(2-guanidino-ethyl)-amide] 2-{[2-(guanidinomethyl-carbamoyl)-1H-indol-6-yl]-amide}] | ≤ 45.5 µM | ≤ 50 µM
4 | N=C(N)NCC1CCC(CNC(=O)c2cc3cc(NC(=O)c4ccc5[nH]c(C(=O)NCC6CCC(CNC(=N)N)CC6)cc5c4)ccc3[nH]2)CC1 (centres unmarked) [Compound 18, 1H-Indole-2,5-dicarboxylic acid 2-[(4-guanidinomethyl-cyclohexylmethyl)-amide] 5-({2-[(4-guanidinomethyl-cyclohexylmethyl)-carbamoyl}-1H-indol-5-yl}-amide)] | ≤ 45.5 µM | ≤ 50 µM
5 | CC(=N)NCC1CCC(CNC(=O)c2cc3cc(NC(=O)c4ccc5[nH]c(C(=O)NCC6CCC(CNC(C)=N)CC6)cc5c4)ccc3[nH]2)CC1 (centres unmarked) [Compound 23, 1H-Indole-2,5-dicarboxylic acid 2-{[4-(acetimidoylamino-methyl)-cyclohexylmethyl]-amide} 5-[(2-{[4-(acetimidoylamino-methyl)-cyclohexylmethyl]-carbamoyl}-1H-indol-5-yl)-amide]] | ≤ 45.5 µM | ≤ 50 µM
6 | N=C(N)NCCNC(=O)c1ccc2[nH]c(C(=O)Nc3ccc4sc(C(=O)NCCNC(=N)N)cc4c3)cc2c1 [Compound 174, 1H-Indole-2,5-dicarboxylic acid 5-[(2-guanidino-ethyl)-amide] 2-{[2-(2-guanidino-ethylcarbamoyl)-benzo[b]thiophen-5-yl]-amide}] | ≤ 45.5 µM | ≤ 50 µM
7 | N=C(N)NCCNC(=O)c1cc2cc(NC(=O)c3ccc4[nH]c(C(=O)NCCNC(=N)N)cc4c3)ccc2[nH]1 [Compound 10, 1H-Indole-2,5-dicarboxylic acid 2-[(2-gutanidino-ethyl)-amide] 5-{[2-(2-guanidino-ethylcarbamoyl)-1H-indol-5-yl]-amide}] | ≤ 45.5 µM | ≤ 50 µM
8 | N=C(N)NCC1CCCC(CNC(=O)c2cc3cc(NC(=O)c4ccc5[nH]c(C(=O)NCC6CCCC(CNC(=N)N)C6)cc5c4)ccc3[nH]2)C1 (centres unmarked) [Compound 24, 1H-Indole-2,5-dicarboxylic acid 2-[(3-guanidinomethyl-cyclohexylmethyl)-amide] 5-({2-[(3-guanidinomethyl-cyclohexylmethyl)-carbamoyl}-1H-indol-5-yl}-amide)] | ≤ 45.5 µM | ≤ 50 µM
9 | N=C(N)CCNC(=O)c1cc2cc(NC(=O)c3cc4cc(C(=O)NCCNC(=N)N)ccc4[nH]3)ccc2[nH]1 [Compound 61, 1H-Indole-2,5-dicarboxylic acid 2-{[2-(2-carbamimidoylethylcarbamoyl)-1H-indol-5-yl]amide} 5-[(2-guanidinoethyl)amide]dihydrochloride] | ≤ 45.5 µM | ≤ 50 µM
10 | CNC(=N)NCCCNC(=O)c1ccc2[nH]c(C(=O)Nc3ccc4cc(C(=O)NCCCNC(=N)NC)[nH]c4c3)cc2c1 [Compound 73, 1H-Indole-2,5-dicarboxylic acid 5-[(3-(N′-methyl-guanidino)-propyl)-amide] 2-{[2-(3-(N′-methyl-guanidino)-propylcarbamoyl)-1H-indol-6-yl-]-amide}] | ≤ 45.5 µM | ≤ 50 µM
11 | O=C(NCCNC1=NCCN1)c1ccc2[nH]c(C(=O)Nc3ccc4[nH]c(C(=O)NCCNC5=NCCN5)cc4c3)cc2c1 [Compound 57, 1H-In dole-2,5-dicarboxylic acid 5-{[2-(4,5-dihydro-1H-imidazol-2-ylamino)ethyl]amide} 2-({2-[2-(4,5-dihydro-1H-imidazol-2-ylamino)ethylcarbamoyl]-1H-indole-5-yl}amide)dihydrochloride] | ≤ 45.5 µM | ≤ 50 µM
12 | C/N=C(\NC)NCCCNC(=O)c1ccc2[nH]c(C(=O)Nc3ccc4[nH]c(C(=O)NCCCN/C(=N/C)NC)cc4c3)cc2c1 [Compound 77, 1H-Indole-2,5-dicarboxylic acid 5-[(3-(N′,N″-dimethyl-guanidino)-propyl)-amide] 2-{[2-(3-(N′,N″-dimethyl-guanidino)-propylcarbamoyl)-1H-indol-5-yl-]-amide}] | ≤ 45.5 µM | ≤ 50 µM
13 | N=C(N)NCCCNC(=O)c1cc2ccc(NC(=O)c3cc4cc(C(=O)NCCNC(=N)N)ccc4[nH]3)cc2[nH]1 [Compound 62, 1H-Indole-2,5-dicarboxylic acid 5-[(2-guanidino-ethyl)-amide] 2-{[2-(3-guanidino-propylcarbamoyl)-1H-indol-6-yl]-amide}] | ≤ 45.5 µM | ≤ 50 µM
14 | N=C(N)NC1CCC(NC(=O)c2cc3cc(NC(=O)c4ccc5[nH]c(C(=O)NC6CCC(NC(=N)N)CC6)cc5c4)ccc3[nH]2)CC1 (centres unmarked) [Compound 21, 1H-Indole-2,5-dicarboxylic acid 2-[(4-guanidino-cyclohexyl)-amide] 5-{[2-(4-guaizidino-cyclohexylcarbamoyl)-1H-indol-5-yl]-amide}] | ≤ 45.5 µM | ≤ 50 µM
15 | CC/N=C(\NC)NCCNC(=O)c1ccc2[nH]c(C(=O)Nc3ccc4[nH]c(C(=O)NCCN/C(=N/CC)NC)cc4c3)cc2c1 [Compound 91, 1H-Indole-2,5-dicarboxylic acid 2-{[2-(N′-ethyl-N′-methylguanidino)ethyl]amide} 5-({2-[2-(N′-ethyl-N″-methylguanidino)ethylcarbamoyl]-1H-indol-5-yl}amide), dihydrochloride] | ≤ 45.5 µM | ≤ 50 µM
16 | CNC(=N)NCCNC(=O)c1ccc2[nH]c(C(=O)Nc3ccc4[nH]c(C(=O)NCCNC(=N)NC)cc4c3)cc2c1 [Compound 55] | ≤ 45.5 µM | ≤ 50 µM
17 | N=C(N)NCCCNC(=O)c1ccc2[nH]c(C(=O)Nc3ccc4cc(C(=O)NCCNC(=N)N)[nH]c4c3)cc2c1 [Compound 52, 1H-Indole-2,5-dicarboxylic acid 2-{[2-(2-guanidinoethylcarbamoyl)-1H-indol-6-yl]amide} 5-[(3-guanidinopropyl)amide]dihydrochloride] | ≤ 45.5 µM | ≤ 50 µM
18 | C/N=C(\NC)NCCCNC(=O)c1cc2cc(NC(=O)c3cc4cc(C(=O)NCCN/C(=N/C)NC)ccc4[nH]3)ccc2[nH]1 [Compound 69, 1H-Indole-2,5-dicarboxylic acid 2-{[2-(N′,N″-dimethyl-guanidino)-ethyl]-amide} 5-({2-[3-(7N′,N″-dimethyl-guanidino)-propylcarbamoyl]-1H-indol-5-yl}-amide)] | ≤ 45.5 µM | ≤ 50 µM
19 | CNC(=N)NCCCNC(=O)c1cc2ccc(NC(=O)c3cc4cc(C(=O)NCCNC(=N)NC)ccc4[nH]3)cc2[nH]1 [Compound 63, 1H-Indole-2,5-dicarboxylic acid 5-{[2-(N′-methyl-guanidino)-ethyl]-amide} 2-({2-[3-(N′-methyl-guanidino)-propylcarbamoyl]-1H-indol-6-yl}-amide)] | ≤ 45.5 µM | ≤ 50 µM
20 | CC(C)Cn1cc(NC(=O)c2cc3cc(C(=O)NCCNC(=N)N)ccc3[nH]2)cc1C(=O)NCCNC(=N)N [Compound 80, 1H-Indole-2,5-dicarboxylic acid 5-[(2-guanidino-ethyl)-amide] 2-{[5-(2-guanidino-ethylcarbamoyl)-1-isobutyl-1H-pyrrol-3-yl]-amide)] | ≤ 45.5 µM | ≤ 50 µM
21 | CNC(=N)NCCCNC(=O)c1ccc2[nH]c(C(=O)Nc3ccc4[nH]c(C(=O)NCCCNC(=N)NC)cc4c3)cc2c1 [Compound 76, 1H-Indole-2,5-dicarboxylic acid S-[(3-(N′-methyl-guanidino)-propyl)-amide] 2-[[2-(3-(N′-methyl-guanidino)-propylcarbamoyl)-1H-indol-5-yl-]-amide)] | ≤ 45.5 µM | ≤ 50 µM
22 | CNC(=N)NCCNC(=O)c1cc2cc(NC(=O)c3cc4cc(NC(=N)NC)ccc4[nH]3)ccc2[nH]1 [Compound 108, 5-[(5-(N′-methyl-guanidine)-1H-indole-2-carbonyl)-amino]-1H-indole-2-carboxylic acid [2-(N′-methyl-guanidino)ethyl]-amide] | ≤ 45.5 µM | ≤ 50 µM
